Assay results taken from patent US10144732B2 (BIOGEN MA INC., priority 2014, dated 2018).
Structures can show the parent of a compound that is named as a salt.

Molecular target: T1, Human ATX protein (Homo sapiens, UniProt Q13822)
T1 construct: made in house
Experiment: ATX biochemical assay (FRET, FS-3 substrate)
Conditions: FRET assay, FS-3 2 μM, ATX 1.0 μg/mL, 30 minutes preincubation, 2 hours reaction at room temperature; read-out: IC50
From the text: ATX (Autotaxin) is a 125 KDa glycoprotein with lysophospholipase D (LPLD) activity that generates the bioactive lipid lysophosphatidic acid (LPA) from lysophosphatidylcholine (LPC). The ATX biochemical assay utilizes a FRET (fluorescence resonance energy transfer) technology platform. The fluorescence signal of FRET substrate FS-3 is quenched due to intra-molecular FRET of a fluorophore to a non-fluorescing quencher (Ferguson, C. G., et al., Org Lett. 2006 May 11; 8(10): 2023-2026, which is incorporated by reference in its entirety). ATX catalyzes the hydrolysis of the substrate which separates the dabsyl quencher from the fluorescein reporter, which becomes fluorescent. The reaction is monitored by a SpectraMax M5 (Molecular Devices, Sunnyvale, Calif.) with at excitation wavelength 485 nm and emission wavelength […].
Fatty acid free-BSA (Sigma A8806): 10 mg/mL in H2O, stored at 4° C.
2×ATX assay buffer: 100 mM Tris, 280 mM NaCl, 10 mM KCl, 2 mM CaCl2, 2 mM MgCl2, pH 7.4.
Human ATX protein: expressed and purified in house. Stored at −80° C.
Substrate FS-3 (Echelon, L-2000): 100 μg in 77.74 μL H2O (1 mM stock), stored at −20° C.
384-well flat bottom plates—Corning #3575.
Compound dilution—All compounds were provided at 10 mM in 100% DMSO. In the first well, 2 μL of 10 mM compound was added to 78 μL of DMSO (1:40 dilution). In subsequent wells 3-fold dilution (total 10 dilutions) were performed.
1×ATX assay buffer was made up with a final concentration of 1 mg/mL fatty acid free-BSA using 2×ATX assay buffer, 10 mg/ml fatty acid free-BSA and ddH2O.
[…]. The final concentration of ATX in the reaction as 1.0 μg/mL.
2 μL per well of compounds was transferred to provide the desired concentration. The plate was centrifuged, then incubated at room temperature for 30 minutes on the shaker.
FS-3 was diluted with 1×ATX assay buffer to a concentration of FS-3 of 10 μM (5×). Then, 10 μL was added per well to the assay plate. The final concentration of FS-3 in the reaction was 2 μM. The plate was centrifuged. The plate was kept shaking at room temperature for 2 hours. Because FS-3 substrate is light sensitive, plates were kept covered and protected from light.
Fluorescence was measured using SpectraMax M5 (excitation at 485 nm/emission at 538 nm, top read).

IC50, ≤ 0.1 µM:
O=C(CC12CCC(C(=O)O)(CC1)C2)N1CCc2c(C(F)(F)F)nn(Cc3ccc(F)cc3)c2C1 [Example 5-53, 4-(2-(1-(4-Fluorobenzyl)-3-(trifluoromethyl)-4,5-dihydro-1H-pyrazolo[3,4-c]pyridin-6(7H)-yl)-2-oxoethyl)bicyclo[2.2.1]heptane-1-carboxylic acid]
O=C(O)CCNCC(=O)N1CCc2c(C(F)(F)F)nn(Cc3ccc(F)cc3)c2C1 [Example 13-16, 3-(2-(1-(4-Fluorobenzyl)-3-(trifluoromethyl)-4,5-dihydro-1H-pyrazolo[3,4-c]pyridin-6(7H)-yl)-2-oxoethylamino)propanoic acid TFA salt]
CC1CC(CC(=O)N2CCc3c(C(F)(F)F)nn(Cc4ccc(Cl)cc4F)c3C2)CCN1C (centres unmarked) [Example 10-2, 1-(1-(4-Chloro-2-fluorobenzyl)-3-(trifluoromethyl)-4,5-dihydro-1H-pyrazolo[3,4-c]pyridin-6(7H)-yl)-2-(1,2-dimethylpiperidin-4-yl)ethanone TFA salt]
O=C(C[C@H]1CC[C@H](C(=O)O)CC1)N1CCc2c(C(F)(F)F)nn(Cc3ccc(Cl)cc3F)c2C1 [Example 5-1, trans-4-(2-(1-(4-Chloro-2-fluorobenzyl)-3-(trifluoromethyl)-4,5-dihydro-1H-pyrazolo[3,4-c]pyridin-6(7H)-yl)-2-oxoethyl)cyclohexanecarboxylic acid]
O=C(O)C1CCC(CC(=O)N2CCc3c(C(F)(F)F)nn(Cc4ccc(Cl)cc4F)c3C2)C1 (mixture of isomers) [Example 6-6, 3-(2-(1-(4-Chloro-2-fluorobenzyl)-3-(trifluoromethyl)-4,5-dihydro-1H-pyrazolo[3,4-c]pyridin-6(7H)-yl)-2-oxoethyl)cyclopentanecarboxylic acid]
CCOC(=O)[C@H]1CC[C@@H](CC(=O)N2CCc3c(C(F)(F)F)nn(Cc4cc(F)cc(Cl)c4)c3C2)CC1 [Example 2-4, cis-ethyl 4-(2-(1-(3-chloro-5-fluorobenzyl)-3-(trifluoromethyl)-4,5-dihydro-1H-pyrazolo[3,4-c]pyridin-6(7H)-yl)-2-oxoethyl)cyclohexanecarboxylate]
O=C(C[C@H]1CC[C@H](C(=O)O)CC1)N1CCc2c(C(F)(F)F)nn(CCC3CCCCC3)c2C1 [Example 7-22, trans-4-(2-(1-(2-cyclohexylethyl)-3-(trifluoromethyl)-4,5-dihydro-1H-pyrazolo[3,4-c]pyridin-6(7H)-yl)-2-oxoethyl)cyclohexanecarboxylic acid]
CCOC(=O)C1CCC(OC(=O)N2CCc3c(C(F)(F)F)nn(Cc4ccc(Cl)cc4F)c3C2)CC1 (centres unmarked) [Example 4-1, 4-(Ethoxycarbonyl)cyclohexyl1-(4-chloro-2-fluorobenzyl)-3-(trifluoromethyl)-4,5-dihydro-1H-pyrazolo[3,4-c]pyridine-6(7H)-carboxylate]
CCOC(=O)C1CCCN(CC(=O)N2CCc3c(C(F)(F)F)nn(Cc4ccc(Cl)cc4F)c3C2)C1 (centres unmarked) [Example 12-3, Ethyl 1-(2-(1-(4-chloro-2-fluorobenzyl)-3-(trifluoromethyl)-4,5-dihydro-1H-pyrazolo[3,4-c]pyridin-6(7H)-yl)-2-oxoethyl)piperidine-3-carboxylate]
O=C(CC1CCC(N2CCCC2)CC1)N1CCc2c(C(F)(F)F)nn(Cc3ccc(F)cc3)c2C1 (centres unmarked) [Example 22-9, 1-(1-(4-Fluorobenzyl)-3-(trifluoromethyl)-4,5-dihydro-1H-pyrazolo[3,4-c]pyridin-6(7H)-yl)-2-(4-(pyrrolidin-1-yl)cyclohexyl)ethanone TFA salt]

IC50, 0.1 to 0.25 µM:
O=C(O)CCN1CCC(C(=O)N2CCc3c(C(F)(F)F)nn(Cc4ccc(F)cc4)c3C2)C1 (centres unmarked) [Example 15-2, 3-(3-(1-(4-Fluorobenzyl)-3-(trifluoromethyl)-4,5,6,7-tetrahydro-1H-pyrazolo[3,4-c]pyridine-6-carbonyl)pyrrolidin-1-yl)propanoic acid TFA salt]
